# Results: publication PMC7209772 (Molecular microbiology, 2019)
# Target: T1, GacB (MxGacB, MXAN_2643), Hypr GGDEF enzyme (Myxococcus xanthus, UniProt Q1D911)
# T1 sequence (Q1D911 1-364): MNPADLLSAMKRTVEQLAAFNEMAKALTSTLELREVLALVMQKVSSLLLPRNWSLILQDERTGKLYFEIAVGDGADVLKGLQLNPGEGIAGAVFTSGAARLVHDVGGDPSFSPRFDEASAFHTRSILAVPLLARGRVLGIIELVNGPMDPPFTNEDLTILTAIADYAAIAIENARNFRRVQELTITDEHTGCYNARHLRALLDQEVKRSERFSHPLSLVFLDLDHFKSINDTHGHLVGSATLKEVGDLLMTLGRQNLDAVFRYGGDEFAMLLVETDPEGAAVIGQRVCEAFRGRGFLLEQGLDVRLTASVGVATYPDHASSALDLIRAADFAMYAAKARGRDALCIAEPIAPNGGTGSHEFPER
# Assay: LC-MS inhibition assay
# Format: biochemical
smiles,measurement,value
"Nc1nc2c(ncn2[C@@H]2O[C@@H]3CO[P@](=O)(O)O[C@H]4[C@@H](O)[C@H](n5cnc6c(=O)[nH]c(N)nc65)O[C@@H]4CO[P@](=O)(O)O[C@H]3[C@H]2O)c(=O)[nH]1 [cdiG, cyclic di-GMP]",IC50,17.8 µM
